The numbers were not newly measured in patent US20080095865A1, “COMPOSITION AND METHOD FOR INCREASING LEAN MUSCLE MASS, DECREASING MUSCLE LOSS, INCREASING MUSCLE STRENGTH AND IMPROVING ATHLETIC PERFORMANCE” (APLODAN FORMULATIONS LTD., priority 2004, published 2008), which cites them from elsewhere.

The conditions of series [1]: elderly subjects, compared to controls.
For series [2] the following is noted: unaffected in placebo group.
For series [3] the following is noted: as a supplement.
The conditions of series [4]: patients with inadequate coronary blood flow.
For series [5] the following is noted: hamster, in vivo.
The conditions of series [6]: supplemented rats.

Consider `CN(CCOP(=O)(O)O)C(=N)N` [Creatinol O-Phosphate], for which the muscular performance entry in series [1] is recorded as “improved muscular performance as compared to controls”. For the same molecule, in series [2], the hand-grip strength entry is given as “improved”. In series [3], the “tolerance and side effects” value is “well tolerated and without side effects”. In addition, the cardiac parameters entry in series [4] is recorded as “successfully used to improve cardiac parameters”.

Take `O=C(O)CCCC[C@@H]1CCSS1` (stereo in doubt) [Alpha Lipoic Acid, 1,2-dithiolane-3-pentanoic acid]: the high-density lipoproteins entry in series [5] is listed as “beneficial increase in high-density lipoproteins”. Also, the “age-related changes in mitochondrial function, accumulated oxidative damage and metabolic rate” value in series [6] is recorded as “improved”. Also, for the setting “diabetics”, the “increase of metabolic clearance rate of glucose” value is on record as 50%. Further, for the setting “type II diabetics”, the “body's utilization of blood sugar” value is “significantly increase”.
